Data as given in paper PMC6009948, “Design and synthesis of benzopyran-based inhibitors of the hypoxia-inducible factor-1 pathway with improved water solubility” (Journal of Enzyme Inhibition and Medicinal Chemistry, 2017).
In brackets after ≈: the same amount, converted by molar mass. Like-named read-outs stand apart in the source and are kept apart here.

Assays:
[1] = system: hypoxia-induced HIF transcriptional activity; test: HRE-luciferase reporter assay in LN229-HRE-luciferase glioma cells; format: cell-based; details: read-out: IC50, HRE-luciferase reporter inhibitory activity
Description: These analogs were first evaluated for their ability to inhibit hypoxia-induced HIF transcriptional activity in LN229-HRE-luciferase glioma cells as described previously. Their inhibitory activities are presented as IC50 in Table 1.
All the analogs were assessed for their ability to inhibit the HIF-1 pathway using a luciferase reporter assay described previously. This assay reports the ability for a compound to inhibit HIF transcriptional activity. […] The same is true if the morpholino unit is directly attached to the sulfonyl group (6). In the two series of compounds (3, 4) with a substituted phenyl group replacing the benzopyran ring in 1, only introduction of the morpholino moiety at the para positions (3) allowed for the preservation of HIF inhibition activity.

[2] = system: hypoxia-induced HIF transcriptional activity; details: cited from earlier work
[3] = system: brain, and pancreatic cancers; set-up: method as in earlier work; details: cited from earlier work
[4] = set-up: method as in earlier work; details: daily treatments with 60 mg/kg for up to 12 weeks; cited from earlier work
[5] = Solubility by dynamic light scattering (particle aggregation); format: physicochemical; details: DLS; for Concentration of particle appearance in PBS: PBS with 1% DMSO, rested 1 h; for Concentration of particle appearance in water: de-ionised water with 1% DMSO, room temperature, rested 24 h
Description: To further investigate the true enhancement of solubility, particle aggregation was examined using dynamic light scattering (DLS). Selected compounds were treated according to the following procedure: • All centrifuge tubes and cuvettes were rinsed with either DCM or water and then vacuum dried before use to remove dust and any particulates. • Stock solutions (10 mM) of each compound of interest were prepared in filtered DMSO. • Six dilutions (0, 10, 20, 30, 50, and 100 µM) were prepared in filtered de-ionised water with 1% DMSO and allowed to rest at room temperature for 24 h after vortex. • DLS analysis was performed for each concentration on the Brookhaven Instrument Corporation, NanoBrook 90Plus Particle Size Analyzer, Version 5.20 (Holtsville, NY). • Additional experiments were performed at specific concentrations for each compound as follows: 0, 1, 3, 10, and 20 µM concentrations of 1; 0, 10, 12, and 20 µM of 2; 0, 5, 7, and 10 µM of 3a; and 0, 10, 20, 30, and 50 µM concentrations of 4a. • Additional experiments were repeated in filtered PBS* with 1% DMSO as follows: 0, 0.5, 1, 2, 3, and 5 µM concentrations of 1; 0, 5, 7, 10, 12, and 15 µM of 2; 0, 10, 12, 15, and 20 µM of 3a; and 0, 10, 20, 30, and 50 µM concentrations of 4a.
*Experiments in PBS were carried out the same way as the experiments in water except DMSO stock solutions were made at 5 mM and the PBS diluted samples rested for 1 h before particle analysis.
To investigate the true enhancement of aqueous solubility, particle aggregation was examined using DLS. DLS can detect particle sizes in solution by measuring changes in scattered light in relation to the Brownian motion of particles. It is commonly used to detect the particle sizes of various chemical and biological molecules, including small molecule inhibitors. Though there are several methods for detecting solubility, we chose the DLS method due to its ease, reproducibility, minimal sample requirement, and relative sensitivity to small particles.
The active compounds 3a and 4a were compared to their non-morpholine containing counterparts, 1 and 2, respectively (Figure 3). Solutions of varying concentrations of each compound were made in either water or PBS with 1% DMSO. […] DLS measurements, summarised in Table 2, reveal that 3a forms aggregates at approximately 10 µM, an order of magnitude higher than 1, which is insoluble at just 1 µM in water.

[6] = set-up: method as in earlier work; details: cited from earlier work
[7] = set-up: method as in earlier work; details: cited from earlier work; remark: listed apart in the source

## 3,4-Dimethoxy-N-(2-(morpholinomethyl)benzyl)-N-phenylbenzenesulfonamide [Compound 3c]
[1]
  IC50: > 5 µM

## COc1ccc(S(=O)(=O)N(Cc2ccc3c(c2)C=CC(C)(C)O3)c2ccccc2)cc1OC [Compound 1, N-((2,2-dimethyl-2H-chromen-6-yl)methyl)-3,4-dimethoxy-N-phenylbenzenesulfonamide]
[2]; lead compound 1 (KCN1), read-out: IC50, HIF-dependent bioassay (HRE-luciferase reporter)
  IC50: ~0.6 µM
[3]
  in vivo inhibitory activity against brain, and pancreatic cancers: very pronounced inhibitory activity
[4]
  tolerability / side effects in mice: minimal side effects
[5]
  Concentration of particle appearance in PBS: 1 µM
  Concentration of particle appearance in water: 1 µM
[6]
  solubility in water: 9 ng/mL (≈ 0.0193 µM)
[7]
  cytotoxicity: Neither did 1 nor its analogs demonstrate cytotoxicity

## COc1ccc(S(=O)(=O)N(Cc2ccc3c(n2)C=CC(C)(C)O3)C2CCC2)cc1OC [Compound 2, N-cyclobutyl-N-((2,2-dimethyl-2H-pyrano[3,2-b]pyridin-6-yl)methyl)-3,4-dimethoxybenzenesulfonamide]
[2]; lead compound 2 (64b), read-out: IC50, HRE-luciferase reporter inhibitory activity
  IC50: ~0.3 µM
[5]
  Concentration of particle appearance in PBS: 10 µM
  Concentration of particle appearance in water: 10 µM

## COc1ccc(S(=O)(=O)N(Cc2ccc(CN3CCOCC3)cc2)c2ccccc2)cc1OC [Compound 3a, 3,4-Dimethoxy-N-(4-(morpholinomethyl)benzyl)-N-phenylbenzenesulfonamide]
[1]; Glioma cell
  IC50: 0.9 µM
[5]
  Concentration of particle appearance in PBS: 15 µM

## COc1ccc(S(=O)(=O)N(Cc2cccc(CN3CCOCC3)c2)c2ccccc2)cc1OC [Compound 3b, 3,4-Dimethoxy-N-(3-(morpholinomethyl)benzyl)-N-phenylbenzenesulfonamide]
[1]; Glioma cell
  IC50: > 5 µM

## COc1ccc(S(=O)(=O)N(Cc2ccc(N3CCOCC3)cc2)c2ccccc2)cc1OC [Compound 3d, 3,4-Dimethoxy-N-(4-morpholinobenzyl)-N-phenylbenzenesulfonamide]
[1]; Glioma cell
  IC50: 3.8 µM

## COc1ccc(S(=O)(=O)N(Cc2ccc(CN3CCOCC3)cc2)C2CCC2)cc1OC [Compound 4a, N-Cyclobutyl-3,4-dimethoxy-N-(4-(morpholinomethyl)benzyl)benzenesulfonamide]
[1]; Glioma cell
  IC50: 1 µM
[5]
  Concentration of particle appearance in water: >100 µM

## COc1ccc(S(=O)(=O)N(Cc2cccc(CN3CCOCC3)c2)C2CCC2)cc1OC [Compound 4b, N-Cyclobutyl-3,4-dimethoxy-N-(3-(morpholinomethyl)benzyl)benzenesulfonamide]
[1]; Glioma cell
  IC50: > 5 µM

## COc1ccc(S(=O)(=O)N(Cc2ccc(N3CCOCC3)cc2)C2CCC2)cc1OC [Compound 4d, N-Cyclobutyl-3,4-dimethoxy-N-(4-morpholinobenzyl)benzenesulfonamide]
[1]; Glioma cell
  IC50: ~2.6 µM

## COc1ccc(S(=O)(=O)N(CCN2CCOCC2)Cc2ccc3c(c2)C=CC(C)(C)O3)cc1OC [Compound 5a, N-((2,2-Dimethyl-2H-chromen-6-yl)methyl)-3,4-dimethoxy-N-(2-morpholinoethyl)benzenesulfonamide]
[1]; Glioma cell
  IC50: > 5 µM

## COc1ccc(S(=O)(=O)N(CCCN2CCOCC2)Cc2ccc3c(c2)C=CC(C)(C)O3)cc1OC [Compound 5b, N-((2,2-Dimethyl-2H-chromen-6-yl)methyl)-3,4-dimethoxy-N-(3-morpholinopropyl)benzenesulfonamide]
[1]; Glioma cell
  IC50: > 5 µM

## CC1(C)C=Cc2cc(CN(c3ccccc3)S(=O)(=O)N3CCOCC3)ccc2O1 [Compound 6a, N-((2,2-Dimethyl-2H-chromen-6-yl)methyl)-N-phenylmorpholine-4-sulfonamide]
[1]; Glioma cell
  IC50: > 5 µM

## CC1(C)C=Cc2cc(CN(C3CCC3)S(=O)(=O)N3CCOCC3)ccc2O1 [Compound 6b, N-Cyclobutyl-N-((2,2-dimethyl-2H-chromen-6-yl)methyl)morpholine-4-sulfonamide]
[1]; Glioma cell
  IC50: > 5 µM

## N-Cyclobutyl-3,4-dimethoxy-N-(2-(morpholinomethyl)benzyl)benzenesulfonamide [Compound 4c]
[1]
  IC50: > 5 µM
